Assay results published in US20060068389A1, “Methods and compositions for inhibiting hiv replication” (priority 2002, published 2006).

Key:
Vpr [1] = conditions: typical of multiple assays, FIG. 1
Text: Accordingly to test if additional anti-glucocorticoids might mediate similar effects, screening assays were developed based on the above Vpr activities which include inhibition of antiviral activity, rescue of the inhibition of cell proliferation and viral transactivation studies. Mifepristone analogues were chosen by SAR analysis.

Rip-1 = test: Vpr mediated stimulation of Rip-1 nuclear translocation; assay type: cell-based, human
Text: (§1) The Vpr gene of HIV-1 encodes a 15 KD virion associated protein which functions as a regulator of cellular processes linked to the HIV life cycle. We observed the interaction of a 41-kD cytosolic viral protein R interacting protein-1 (rip-1), associated with Vpr in vitro, and co-localizes in cells ex vivo. […] This protein co-elutes with Vpr in an immunoaffmity system and can be cross-linked with Vpr to form a 58 Kd complex. […] The Vpr mediated stimulation of Rip-1 nuclear translocation, and the viral complementation accomplished with exogenous Vpr protein was mimicked by GR II stimulating steroids. These effects were inhibited by mifepristone, a well-characterized GR II pathway inhibitor. In addition, the levels of LTR-CAT induction attained by Vpr protein were similarly obtained by GR activating steroids. Vpr protein induced CAT activity in cells transfected with a plasmid that contains CAT linked to HIV-1 LTR, pLTR-CAT, and co-localized with Dexamethasone as to the site of its induction of CAT activity from a panel of HIV-1 LTR CAT deletion mutants. In addition, Vpr stimulated the formation of the DNA binding complex which associates with GRE sequences during the glucocorticoid mediated transactivation process.

Vpr [2] = test: Viral complementation accomplished with exogenous Vpr protein; assay type: cell-based, HIV-1
Text: as §1

CC(=O)C1CCC2C3C=CC4=CC(=O)CCC4(C)C3CCC12C (stereo not shown) [Compound D1, Pregna4,6,-diene-3,20-dione]
activity in the above assays (Vpr-based screening assays) (Vpr [1]): some activity

C#C[C@]1(O)CCC2C3CCC4=C(CCC(=O)C4)C3CCC21C (stereo partly drawn) [Compound D2, 17-α-ethynyl-17-β-hydroxyestr-5(10)-En-3-one]
activity in the above assays (Vpr-based screening assays) (Vpr [1]): some activity

CC#C[C@]1(O)CC[C@H]2[C@@H]3CCC4=CC(=O)CCC4=C3[C@@H](c3ccc(N(C)C)cc3)C[C@@]21C [mifepristone]
inhibition of Vpr mediated stimulation of Rip-1 nuclear translocation (Rip-1): inhibited
inhibition of viral complementation accomplished with exogenous Vpr protein (Vpr [2]): inhibited
